In PubChem BioAssay (NCI):
Several values for one entry are separate records, joined by “and”; a condition that tells them apart may be missing. Identical values can stand only once.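 Assay format: 96-well plates, 48-hour exposure. Here, GI50 denotes the concentration required for 50% inhibition of growth. TGI denotes the concentration required for complete inhibition of growth.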

Experiments:
Assay in all cases: NCI anticancer screen, dose series, 48 h
SR leukemia = test system: SR leukemia
MDA-MB-231 breast = test system: MDA-MB-231 breast
SK-MEL-5 melanoma = test system: SK-MEL-5 melanoma
NCI-H522 lung = test system: NCI-H522 lung
CAKI-1 renal = test system: CAKI-1 renal
IGROV1 ovarian = test system: IGROV1 ovarian
SK-OV-3 ovarian = test system: SK-OV-3 ovarian
SF-295 CNS = test system: SF-295 CNS
ACHN renal = test system: ACHN renal
SK-MEL-28 melanoma = test system: SK-MEL-28 melanoma
NCI-H226 lung = test system: NCI-H226 lung
OVCAR-5 ovarian = test system: OVCAR-5 ovarian
UACC-257 melanoma = test system: UACC-257 melanoma
SW-620 colon = test system: SW-620 colon
MCF7 breast = test system: MCF7 breast
CCRF-CEM leukemia = test system: CCRF-CEM leukemia
UO-31 renal = test system: UO-31 renal
HCT-15 colon = test system: HCT-15 colon
HOP-62 NSCLC = test system: HOP-62 NSCLC
SF-539 CNS = test system: SF-539 CNS
U251 CNS = test system: U251 CNS
HCC-2998 colon = test system: HCC-2998 colon
NCI/ADR-RES ovarian = test system: NCI/ADR-RES ovarian
A498 renal = test system: A498 renal
SNB-75 CNS = test system: SNB-75 CNS
OVCAR-4 ovarian = test system: OVCAR-4 ovarian
786-0 renal = test system: 786-0 renal
SNB-19 CNS = test system: SNB-19 CNS
MALME-3M melanoma = test system: MALME-3M melanoma
SK-MEL-2 melanoma = test system: SK-MEL-2 melanoma
PC-3 prostate = test system: PC-3 prostate
SF-268 CNS = test system: SF-268 CNS
EKVX NSCLC = test system: EKVX NSCLC
NCI-H23 lung = test system: NCI-H23 lung
SN12C renal = test system: SN12C renal
HS 578T breast = test system: HS 578T breast
OVCAR-3 ovarian = test system: OVCAR-3 ovarian
HL-60(TB) leukemia = test system: HL-60(TB) leukemia
HT29 colon = test system: HT29 colon
OVCAR-8 ovarian = test system: OVCAR-8 ovarian
MDA-MB-435 = test system: MDA-MB-435
LOX IMVI melanoma = test system: LOX IMVI melanoma
COLO 205 colon = test system: COLO 205 colon
TK-10 renal = test system: TK-10 renal
MDA-N = test system: MDA-N
NCI-H460 lung = test system: NCI-H460 lung
HOP-92 NSCLC = test system: HOP-92 NSCLC
T-47D breast = test system: T-47D breast
RPMI-8226 leukemia = test system: RPMI-8226 leukemia
DU-145 prostate = test system: DU-145 prostate
K-562 leukemia = test system: K-562 leukemia
RXF 393 renal = test system: RXF 393 renal
MOLT-4 leukemia = test system: MOLT-4 leukemia
M14 melanoma = test system: M14 melanoma
KM12 colon = test system: KM12 colon
UACC-62 melanoma = test system: UACC-62 melanoma
A549 NSCLC = test system: A549 NSCLC
HCT-116 colon = test system: HCT-116 colon

## Cn1c2c(c3ccccc31)CCN1C(=O)CCC21 (stereo not drawn)
SR leukemia
  TGI: > 10 µM
MDA-MB-231 breast
  TGI: > 10 µM
SK-MEL-5 melanoma
  TGI: > 10 µM
NCI-H522 lung
  TGI: > 10 µM
CAKI-1 renal
  TGI: > 10 µM
IGROV1 ovarian
  TGI: > 10 µM
SK-OV-3 ovarian
  TGI: > 10 µM
SF-295 CNS
  TGI: > 10 µM
ACHN renal
  TGI: > 10 µM
SK-MEL-28 melanoma
  TGI: > 10 µM
NCI-H226 lung
  TGI: > 10 µM
OVCAR-5 ovarian
  TGI: > 10 µM
UACC-257 melanoma
  TGI: > 10 µM
SW-620 colon
  TGI: > 10 µM
MCF7 breast
  TGI: > 10 µM
CCRF-CEM leukemia
  TGI: > 10 µM
UO-31 renal
  TGI: > 10 µM
HCT-15 colon
  TGI: > 10 µM
HOP-62 NSCLC
  TGI: > 10 µM
SF-539 CNS
  TGI: > 10 µM
U251 CNS
  TGI: > 10 µM
HCC-2998 colon
  TGI: > 10 µM
NCI/ADR-RES ovarian
  TGI: > 10 µM
A498 renal
  TGI: > 10 µM
SNB-75 CNS
  TGI: > 10 µM
OVCAR-4 ovarian
  TGI: > 10 µM
786-0 renal
  TGI: > 10 µM
SNB-19 CNS
  TGI: > 10 µM
MALME-3M melanoma
  TGI: > 10 µM
SK-MEL-2 melanoma
  TGI: > 10 µM
PC-3 prostate
  TGI: > 10 µM
SF-268 CNS
  TGI: > 10 µM
EKVX NSCLC
  TGI: > 10 µM
NCI-H23 lung
  TGI: > 10 µM
SN12C renal
  TGI: > 10 µM
HS 578T breast
  TGI: > 10 µM
OVCAR-3 ovarian
  TGI: > 10 µM
HL-60(TB) leukemia
  TGI: > 10 µM
HT29 colon
  TGI: > 10 µM
OVCAR-8 ovarian
  TGI: > 10 µM
MDA-MB-435
  TGI: > 10 µM
LOX IMVI melanoma
  TGI: > 10 µM
COLO 205 colon
  TGI: > 10 µM
TK-10 renal
  TGI: > 10 µM
MDA-N
  TGI: > 10 µM
NCI-H460 lung
  TGI: > 10 µM
HOP-92 NSCLC
  TGI: > 10 µM
T-47D breast
  TGI: > 10 µM
RPMI-8226 leukemia
  TGI: > 10 µM
DU-145 prostate
  TGI: > 10 µM
K-562 leukemia
  TGI: > 10 µM
RXF 393 renal
  TGI: > 10 µM
MOLT-4 leukemia
  TGI: > 10 µM
M14 melanoma
  TGI: > 10 µM
KM12 colon
  TGI: > 10 µM

## Cc1c(CCCl)c(N=P(c2ccccc2)(c2ccccc2)c2ccccc2)n2c(nc3ccccc32)c1C#N
SR leukemia
  TGI: > 10 µM
UACC-62 melanoma
  TGI: > 10 µM
MDA-MB-231 breast
  TGI: > 10 µM
SK-MEL-5 melanoma
  TGI: > 10 µM
CAKI-1 renal
  TGI: > 10 µM
IGROV1 ovarian
  TGI: > 10 µM
SK-OV-3 ovarian
  TGI: > 10 µM
SF-295 CNS
  TGI: > 10 µM
SK-MEL-28 melanoma
  TGI: > 10 µM
A549 NSCLC
  TGI: > 10 µM
UACC-257 melanoma
  TGI: > 10 µM
SW-620 colon
  TGI: > 10 µM
MCF7 breast
  TGI: > 10 µM
CCRF-CEM leukemia
  TGI: > 10 µM
HCT-15 colon
  TGI: > 10 µM
HOP-62 NSCLC
  TGI: > 10 µM
HCC-2998 colon
  TGI: > 10 µM
SNB-75 CNS
  TGI: > 10 µM
786-0 renal
  TGI: > 10 µM
MALME-3M melanoma
  TGI: > 10 µM
PC-3 prostate
  TGI: > 10 µM
SF-268 CNS
  TGI: > 10 µM
EKVX NSCLC
  TGI: > 10 µM
NCI-H23 lung
  TGI: > 10 µM
SN12C renal
  TGI: > 10 µM
HT29 colon
  TGI: > 10 µM
OVCAR-8 ovarian
  TGI: > 10 µM
LOX IMVI melanoma
  TGI: > 10 µM
COLO 205 colon
  TGI: > 10 µM
TK-10 renal
  TGI: > 10 µM
MDA-N
  TGI: > 10 µM
T-47D breast
  TGI: > 10 µM
RPMI-8226 leukemia
  TGI: > 10 µM
DU-145 prostate
  TGI: > 10 µM
K-562 leukemia
  TGI: > 10 µM
RXF 393 renal
  TGI: > 10 µM
MOLT-4 leukemia
  TGI: > 10 µM
M14 melanoma
  TGI: > 10 µM
KM12 colon
  TGI: > 10 µM

## CCCCCCCCCC[C@H](O)[C@H](O)CC[C@@H](O)[C@H]1CC[C@@H]([C@H]2CC[C@H](CCCCCCC[C@@H](O)CC3=C[C@H](C)OC3=O)O2)O1
UACC-62 melanoma
  TGI: 5.95 µM
MDA-MB-231 breast
  GI50: 19.4 µM
  TGI: 7.79 µM and 69.2 µM
SK-MEL-5 melanoma
  GI50: 0.0863 µM
  TGI: 3.46 µM and 15.9 µM
NCI-H522 lung
  TGI: 62.1 µM
CAKI-1 renal
  GI50: 32.4 µM
  TGI: 9.67 µM and 89 µM
IGROV1 ovarian
  GI50: 25.8 µM
SF-295 CNS
  GI50: 0.416 µM
  TGI: 31.9 µM
ACHN renal
  TGI: > 100 µM
SK-MEL-28 melanoma
  GI50: 47 µM
  TGI: > 100 µM
NCI-H226 lung
  GI50: 21.2 µM
OVCAR-5 ovarian
  GI50: 47.7 µM
  TGI: > 100 µM
A549 NSCLC
  GI50: 20.7 µM
  TGI: > 100 µM
UACC-257 melanoma
  GI50: 9.51 µM
  TGI: > 100 µM
SW-620 colon
  GI50: 47.2 µM
  TGI: > 100 µM
MCF7 breast
  GI50: 19.2 µM
  TGI: 77.6 µM
UO-31 renal
  GI50: 16.6 µM
  TGI: 4.18 µM and 32.3 µM
HCT-15 colon
  GI50: 23.8 µM
  TGI: > 100 µM
HOP-62 NSCLC
  GI50: 11.6 µM
  TGI: 69.8 µM
SF-539 CNS
  GI50: 15.5 µM
  TGI: 40.9 µM
U251 CNS
  TGI: > 100 µM
HCC-2998 colon
  TGI: 47 µM
NCI/ADR-RES ovarian
  GI50: 18.2 µM
  TGI: > 100 µM
A498 renal
  GI50: 17.7 µM
  TGI: 87.1 µM
SNB-75 CNS
  GI50: 25.8 µM
  TGI: 98.2 µM
OVCAR-4 ovarian
  TGI: 78 µM
786-0 renal
  GI50: 30.9 µM
  TGI: > 100 µM
SNB-19 CNS
  GI50: 29.5 µM
MALME-3M melanoma
  TGI: 48.3 µM
SK-MEL-2 melanoma
  GI50: 27 µM
PC-3 prostate
  GI50: 11.7 µM
  TGI: 40.7 µM
SF-268 CNS
  GI50: 29.3 µM
  TGI: > 100 µM
EKVX NSCLC
  GI50: 18.5 µM
NCI-H23 lung
  GI50: 0.951 µM
SN12C renal
  GI50: 25.3 µM
  TGI: 74.8 µM
OVCAR-3 ovarian
  GI50: 11.8 µM
  TGI: 3.42 µM and 30.9 µM
HL-60(TB) leukemia
  TGI: 6.74 µM
HT29 colon
  TGI: 5.64 µM
MDA-MB-435
  GI50: 28.7 µM
LOX IMVI melanoma
  GI50: 2.9 µM
  TGI: 3.5 µM and 24.2 µM
COLO 205 colon
  GI50: 18 µM
  TGI: 4.42 µM and 35.7 µM
TK-10 renal
  GI50: 36.3 µM
  TGI: > 100 µM
MDA-N
  GI50: 17.5 µM
  TGI: 53 µM
NCI-H460 lung
  GI50: 0.39 µM
  TGI: 29.6 µM
T-47D breast
  GI50: 4.22 µM
  TGI: 42.8 µM
HCT-116 colon
  GI50: 0.966 µM
  TGI: 61.6 µM
RPMI-8226 leukemia
  GI50: 16.6 µM
  TGI: 50.4 µM
RXF 393 renal
  GI50: 42.5 µM
  TGI: 83 µM
MOLT-4 leukemia
  GI50: 23.9 µM
  TGI: 94.7 µM
M14 melanoma
  GI50: 23.1 µM
  TGI: 58.4 µM
KM12 colon
  GI50: 27.7 µM
  TGI: > 100 µM

## C=CCc1c(O)c2nsnc2c2nsnc12
SR leukemia
  TGI: > 10 µM
UACC-62 melanoma
  TGI: > 10 µM
MDA-MB-231 breast
  TGI: > 10 µM
SK-MEL-5 melanoma
  TGI: > 10 µM
CAKI-1 renal
  TGI: > 10 µM
IGROV1 ovarian
  TGI: > 10 µM
SK-OV-3 ovarian
  TGI: > 10 µM
SF-295 CNS
  TGI: > 10 µM
SK-MEL-28 melanoma
  TGI: > 10 µM
A549 NSCLC
  TGI: > 10 µM
UACC-257 melanoma
  TGI: > 10 µM
SW-620 colon
  TGI: > 10 µM
MCF7 breast
  TGI: > 10 µM
CCRF-CEM leukemia
  TGI: > 10 µM
HCT-15 colon
  TGI: > 10 µM
HOP-62 NSCLC
  TGI: > 10 µM
HCC-2998 colon
  TGI: > 10 µM
SNB-75 CNS
  TGI: > 10 µM
786-0 renal
  TGI: > 10 µM
MALME-3M melanoma
  TGI: > 10 µM
PC-3 prostate
  TGI: > 10 µM
SF-268 CNS
  TGI: > 10 µM
EKVX NSCLC
  TGI: > 10 µM
NCI-H23 lung
  TGI: > 10 µM
SN12C renal
  TGI: > 10 µM
HL-60(TB) leukemia
  TGI: > 10 µM
HT29 colon
  TGI: > 10 µM
OVCAR-8 ovarian
  TGI: > 10 µM
LOX IMVI melanoma
  TGI: > 10 µM
COLO 205 colon
  TGI: > 10 µM
TK-10 renal
  TGI: > 10 µM
MDA-N
  TGI: > 10 µM
T-47D breast
  TGI: > 10 µM
RPMI-8226 leukemia
  TGI: > 10 µM
DU-145 prostate
  TGI: > 10 µM
K-562 leukemia
  TGI: > 10 µM
RXF 393 renal
  TGI: > 10 µM
MOLT-4 leukemia
  TGI: > 10 µM
M14 melanoma
  TGI: > 10 µM
KM12 colon
  TGI: > 10 µM
